Experimental data: patent US8431591B2, “R(−)-2-methoxy-11-hydroxyaporphine and derivatives thereof” (The McLean Hospital Corporation, priority 2007, dated 2013)
Like-named read-outs stand apart in the source and are kept apart here.

What was measured:
dopamine D1 receptor = dopamine D1 receptor (Rattus norvegicus, UniProt P18901); test: Radioligand competition assay, affinity at rat D1 receptors ([3H]SCH23390); assay type: binding; conditions: radioligand [3H]SCH23390
dopamine D2 receptor = dopamine D2 receptor (Rattus norvegicus, UniProt P61169); test: Radioligand competition assay, affinity at rat D2 receptors ([3H]nemonapride); assay type: binding
Chain of dopamine D2 receptor (P61169 whole entry): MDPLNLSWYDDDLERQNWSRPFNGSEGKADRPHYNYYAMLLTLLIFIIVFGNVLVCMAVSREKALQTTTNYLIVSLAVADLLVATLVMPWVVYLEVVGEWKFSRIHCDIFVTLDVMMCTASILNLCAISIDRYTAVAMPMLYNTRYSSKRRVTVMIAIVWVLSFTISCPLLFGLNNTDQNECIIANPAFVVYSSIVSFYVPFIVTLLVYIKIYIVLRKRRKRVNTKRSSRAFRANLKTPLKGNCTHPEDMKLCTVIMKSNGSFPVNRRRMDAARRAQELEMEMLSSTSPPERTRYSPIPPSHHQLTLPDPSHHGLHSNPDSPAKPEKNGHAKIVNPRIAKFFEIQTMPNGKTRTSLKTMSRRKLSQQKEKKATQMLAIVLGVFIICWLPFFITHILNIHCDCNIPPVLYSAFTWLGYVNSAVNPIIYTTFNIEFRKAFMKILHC

D2 receptor = conditions: Gao et al., J. Med. Chem. 33:1800 (1990); cited from earlier work
[1] = following a single dose; cited from earlier work

Chain of dopamine D1 receptor (P18901 whole entry): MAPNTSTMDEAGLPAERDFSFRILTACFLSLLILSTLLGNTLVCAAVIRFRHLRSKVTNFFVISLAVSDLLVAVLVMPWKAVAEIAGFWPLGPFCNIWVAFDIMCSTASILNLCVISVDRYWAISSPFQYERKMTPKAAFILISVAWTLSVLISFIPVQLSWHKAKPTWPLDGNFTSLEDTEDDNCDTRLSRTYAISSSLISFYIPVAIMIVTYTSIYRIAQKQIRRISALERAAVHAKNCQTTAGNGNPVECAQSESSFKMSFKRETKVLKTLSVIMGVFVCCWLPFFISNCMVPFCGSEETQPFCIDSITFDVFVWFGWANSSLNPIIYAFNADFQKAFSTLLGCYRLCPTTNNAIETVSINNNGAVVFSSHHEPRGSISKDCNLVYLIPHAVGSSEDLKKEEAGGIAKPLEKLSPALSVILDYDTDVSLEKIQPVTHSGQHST

SMILES | Ki (dopamine D1 receptor) | D2 receptor affinity and selectivity (in words) (D2 receptor) | further results
COc1cc2c3c(c1)-c1c(O)cccc1CC3N(C)CC2 (stereo not drawn) [Compound 3, 2-Methoxy-11-hydroxyaporphine] | 46 ± 2.8 nM |  | Ki (dopamine D2 receptor; rat receptors, radioligand [3H]nemonapride, read-out: Affinity at rat receptors, D2): 235 ± 32 nM
CCCN1CCc2cc(OC)cc3c2[C@H]1Cc1ccc(O)c(O)c1-3 [Compound 1c, R(−)-2-methoxy-N-n-propylnorapomorphine] |  | among the most potent and highly selective agonists for the D2 receptor | 
CCCN1CCc2cc(O)cc3c2[C@H]1Cc1ccc(O)c(O)c1-3 [R(−)-2-OH-NPA, R(−)-2-hydroxy-N-n-propylnorapomorphine] |  | among the most potent and highly selective agonists for the D2 receptor | 
CN1CCc2cccc3c2[C@H]1Cc1ccc(O)c(O)c1-3 [apomorphine, R(−)-Apomorphine] |  |  | duration of effects [1]: 40 to 60 min; onset of action [1]: 5 to 15 min
CCCN1CCc2cccc3c2[C@H]1Cc1cccc(O)c1-3 [Compound 2, R(−)-11-hydroxy-N-n-propylnoraporphine] |  | even higher affinity and selectivity for D2 receptor than apomorphine | 
COc1cc2c3c(c1)-c1c(ccc(O)c1O)C[C@H]3N(C)CC2 [Compound 8] | 6450 nM |  | Ki (dopamine D2 receptor): 1.3 ± 0.4 nM
